One experiment deals with TDP1 (Homo sapiens (Human), UniProt Q9NUW8). Put plainly: TDP1 gel-based in vitro fluorescence assay. The note with it: for FC (fold change): Table 7, ratio of IC50 TDP2 to TDP1. It counts as biochemical. Here is the method:
(§1) (TDP assay buffer: 50 mM Tris HCl, pH 7.5, 80 mM KCl, 2 mM EDTA, 1 mM DTT, 40 μg/ml BSA and 0.01% Tween-20. TDP1 (20 mg/mL in 25 mM Tris-HCl pH 7.2, 150 mM NaCl, 2 mM tris(2-carboxyethyl)phosphine) with 2 mL of well solution composed of 0.1 M MOPS/HEPES pH 7.5, 10% (w/v) PEG 8000, 20% (v/v) ethylene glycol, 0.03 M sodium fluoride, 0.03 M sodium bromide, 0.03 M sodium iodide, 0.03 M sodium bromide and sealed over […] well solution. AF647 labelling buffer: Tris-HCl (pH 7.2, 25 mM), NaCl (150 mM), and tris(2-carboxyethyl)phosphine hydrochloride (TCEP, 2 mM).)
(§2) (DNA only: Buffer+DMSO. DMSO only: Enzyme+DMSO. Drug: Enzyme+Drug, 25° C., 10 min+DNA, reaction at 25° C., 15 min.)
Gel images were scanned using a Typhoon FLA 9500 scanner (GE Healthcare) and densitometric analyses were performed using the ImageQuant software (GE Healthcare). The IC50 of TDP1 inhibitors was calculated by comparing the percentage of cleavage product (5′Cy5-[…]-p-3′) to DMSO control.

Experiment [1] has as its system human colon cancer cell line HCT116. In words: Synergistic effect with camptothecin (CPT) based on cell viability. The note with it: for Synergy Score: with camptothecin (CPT), HCT116, 72 h, SynergyFinder 2.0; for synergy with camptothecin: list in description. Here is the method:
The synergistic effects of the TDP1 inhibitors with CPT were tested in human colon cancer cell line HCT116 based on cell viability (Table 3, FIGS. 2-5). Cells were first seeded in a 384-well black-clear plate until 30% confluency and then incubated with a serial dilution of CPT at the range of 0-100 nM in the present or the absence of TDP1 inhibitors for 72 h at 37° C. Viable cell numbers were counted from the brightfield images taken by Biotek Cytation 5 (FIGS. 2-3). Fractional affect (Fa) and combination index (Ci) were analyzed with CompuSyn software. Synergistic scores of each TDP1 inhibitors were calculated and collected based on the data analysis from SynergyFinder (FIG. 4). […]

The next experiment addresses TDP2 (Homo sapiens (Human), UniProt O95551). Put plainly: gel-based TDP2 fluorescence assay in vitro. It counts as biochemical. Conditions: read-out: TDP2 IC50. Here is the method: as §1, §2
The mark [2] stands for this setting: Table 1, imidazo[1,2-a]pyridin-3-amines, read-out: IC50.
Setting [3] is: Table 10, PROTACs, read-out: TDP1 IC50.
Setting [4] is: Table 7, HPLC-purified oxime leads.
[5] abbreviates: Table 7, HPLC-purified oxime leads, read-out: TDP1 IC50.

In general, IC50 refers to the concentration that gives 50% inhibition.

Read-outs that look alike come from different tables or passages of the source. Bounds are passed on as bounds.

TDP1, sequence (Q9NUW8 whole entry): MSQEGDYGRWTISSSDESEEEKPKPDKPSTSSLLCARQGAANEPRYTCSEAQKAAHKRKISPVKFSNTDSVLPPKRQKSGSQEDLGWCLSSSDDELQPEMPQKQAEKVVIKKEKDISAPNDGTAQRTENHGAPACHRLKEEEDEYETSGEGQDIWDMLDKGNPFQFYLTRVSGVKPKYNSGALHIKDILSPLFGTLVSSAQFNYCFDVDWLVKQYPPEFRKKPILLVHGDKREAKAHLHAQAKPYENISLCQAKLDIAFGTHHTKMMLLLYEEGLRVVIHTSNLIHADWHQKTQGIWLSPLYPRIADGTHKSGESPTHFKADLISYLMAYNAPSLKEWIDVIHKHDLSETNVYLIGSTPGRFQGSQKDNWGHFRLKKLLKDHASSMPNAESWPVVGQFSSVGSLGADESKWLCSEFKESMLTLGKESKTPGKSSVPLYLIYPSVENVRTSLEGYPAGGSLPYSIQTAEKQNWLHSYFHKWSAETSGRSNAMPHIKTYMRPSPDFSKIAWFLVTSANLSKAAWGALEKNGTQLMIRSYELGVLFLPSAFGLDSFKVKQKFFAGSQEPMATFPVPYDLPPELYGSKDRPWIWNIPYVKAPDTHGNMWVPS
TDP2, sequence (O95551 whole entry, species assumed): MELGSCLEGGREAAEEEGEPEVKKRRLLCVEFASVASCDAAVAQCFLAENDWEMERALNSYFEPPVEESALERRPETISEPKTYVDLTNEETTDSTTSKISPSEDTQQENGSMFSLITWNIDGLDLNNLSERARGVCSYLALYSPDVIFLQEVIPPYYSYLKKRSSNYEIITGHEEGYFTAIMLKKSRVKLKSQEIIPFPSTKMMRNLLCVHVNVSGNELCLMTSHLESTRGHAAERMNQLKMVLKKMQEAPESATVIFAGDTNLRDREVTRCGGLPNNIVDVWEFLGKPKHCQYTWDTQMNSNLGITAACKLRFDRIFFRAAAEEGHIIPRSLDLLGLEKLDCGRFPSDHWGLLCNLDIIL

With `CS(=O)(=O)c1ccc2nc(-c3ccccc3)c(Nc3ccc(C(=O)O)cc3)n2c1` [Compound 8q, 4-((6-(Methylsulfonyl)-2-phenylimidazo[1,2-a]pyridin-3-yl)amino)benzoic acid], the “TDP1 Selectivity” value at TDP1 (ratio of IC50 values of TDP1/TDP2) came out at 26. In addition, the “Synergy Score” value in experiment [1] is reported as 9.5.

On to `CS(=O)(=O)c1ccc2nc(-c3ccccc3)c(Nc3ccc([N+](=O)[O-])cc3)n2c1` [Compound 6u, 6-(Methylsulfonyl)-N-(4-nitrophenyl)-2-phenylimidazo[1,2-a]pyridin-3-amine], for which, on TDP1 (setting [2]), the IC50 was 16.1 µM. Moreover, the synergy with camptothecin result in experiment [1] was “exhibit synergy with camptothecin”.

Regarding `O=C(O)c1ccc(Nc2c(-c3ccccc3)nc3ccccn23)cc1C(=O)O` [Compound 10b, 4-((2-Phenylimidazo[1,2-a]pyridin-3-yl)amino)phthalic acid], the IC50 at TDP2 (Table 3) is > 100 µM. In experiment [1], the synergy with camptothecin entry was “exhibit synergy with camptothecin” and the “Synergy Score” value came to 17.9.

`O=C(COc1cccc2c1C(=O)N(C1CCC(=O)NC1=O)C2=O)NCCCCn1cc(-c2ccc(-c3nc4ccccn4c3Nc3ccc(C(=O)O)cc3)cc2)nn1` (stereo not shown) [XZ689, 4-((2-(4-(1-(4-(2-((2-(2,6-dioxopiperidin-3-yl)-1,3-dioxoisoindolin-4-yl)oxy)acetamido)butyl)-1H-1,2,3-triazol-4-yl)phenyl)imidazo[1,2-a]pyridin-3-yl)amino)benzoic acid]: the half-inhibitory concentration (IC50) at TDP1 (setting [3]) was > 100 µM; on TDP2 (Table 10, PROTACs), > 100 µM.

Regarding `O=C(O)c1ccc(Nc2c(-c3ccc(CO/N=C\c4ccc(-c5cnccn5)cc4)cc3)nc3cc(-c4ccccc4)ccn23)cc1` [XZ709, (Z)-4-((7-Phenyl-2-(4-((((4-(pyrazin-2-yl)benzylidene)amino)oxy)methyl)phenyl)imidazo[1,2-a]pyridin-3-yl)amino)benzoic acid], the “FC (fold change)” value on TDP1 is on record as >2. On TDP2 (setting [4]), the IC50 is > 100 µM.

On to `O=C1CCC(N2C(=O)c3cccc(OCCOCCOCc4cn(Cc5ccc(-c6nc7cc(-c8ccccc8)ccn7c6Nc6ccc(C(=O)O)cc6)cc5)nn4)c3C2=O)C(=O)N1` (stereo not shown) [XZ743, 4-((2-(4-((4-((2-(2-((2-(2,6-Dioxopiperidin-3-yl)-1,3-dioxoisoindolin-4-yl)oxy)ethoxy)ethoxy)methyl)-1H-1,2,3-triazol-1-yl)methyl)phenyl)-7-phenylimidazo[1,2-a]pyridin-3-yl)amino)benzoic acid], for which the IC50 on TDP1 (setting [3]) was > 100 µM; at TDP2 (Table 10, PROTACs), > 100 µM.

`O=C(O)c1ccc(Nc2c(-c3ccccc3)nc3ccccn23)cc1` [Compound 8a, 4-((2-Phenylimidazo[1,2-a]pyridin-3-yl)amino)benzoic acid]: the IC50 on TDP2 (Table 3) is > 100 µM. Further, the “Synergy Score” value in experiment [1] is recorded as −1.3.

For the compound `O=C(O)c1ccc(Nc2c(-c3ccccc3)nc3ccc(Br)cn23)cc1` [Compound 8o, 4-((6-Bromo-2-phenylimidazo[1,2-a]pyridin-3-yl)amino)benzoic acid], the IC50 at TDP1 (setting [2]) was found to be 1.6 µM. For the same compound, in experiment [1], the synergy with camptothecin result is “exhibit synergy with camptothecin”.

With `O=C1CCC(N2C(=O)c3cccc(NCCc4cn(Cc5ccc(-c6nc7cc(-c8ccccc8)ccn7c6Nc6ccc(C(=O)O)cc6)cc5)nn4)c3C2=O)C(=O)N1` (stereo not shown) [XZ749, 4-((2-(4-((4-(2-((2-(2,6-Dioxopiperidin-3-yl)-1,3-dioxoisoindolin-4-yl)amino)ethyl)-1H-1,2,3-triazol-1-yl)methyl)phenyl)-7-phenylimidazo[1,2-a]pyridin-3-V)amino)benzoic acid], the IC50 worked out at 12.3 ± 1.5 µM at TDP1 (setting [3]) and 16.8 ± 0.3 µM on TDP2 (Table 10, PROTACs).

On to `O=C(O)c1ccc(Nc2c(-c3ccc(OS(=O)(=O)F)cc3)nc3cc(-c4ccccc4)ccn23)cc1` [XZ728, 4-((2-(4-((Fluorosulfonyl)oxy)phenyl)-7-phenylimidazo[1,2-a]pyridin-3-yl)amino)benzoic acid], for which the IC50 on TDP1 (Table 9, fluorosulfates and sulfonyl fluorides, read-out: TDP1 IC50) is > 100 µM; at TDP2 (Table 9, fluorosulfates and sulfonyl fluorides), > 100 µM.

`O=C(O)c1ccc(Nc2c(-c3ccc(CO/N=C\c4ccc(N5CCCC5=O)cc4)cc3)nc3cc(-c4ccccc4)ccn23)cc1` [XZ710, (Z)-4-((2-(4-((((4-(2-Oxopyrrolidin-1-yl)benzylidene)amino)oxy)methyl)phenyl)-7-phenylimidazo[1,2-a]pyridin-3-yl)amino)benzoic acid]: on TDP1, the “FC (fold change)” value is >13. Also, the IC50 on TDP2 (setting [4]) is > 100 µM.

With `O=C(O)c1ccc(Nc2c(-c3ccccc3)nc3cc(C(=O)O)ccn23)cc1` [Compound 8s, 3-((4-Carboxyphenyl)amino)-2-phenylimidazo[1,2-a]pyridine-7-carboxylic acid], the IC50 on TDP2 (Table 3) is > 100 µM. Also, in experiment [1], the synergy with camptothecin entry is listed as “exhibit synergy with camptothecin” and the “Synergy Score” value worked out at 20.7.

Regarding `N#Cc1ccc(-c2ccc(/C=N\OCc3ccc4nc(-c5ccccc5)c(Nc5ccc(C(=O)O)cc5)n4c3)cc2)nc1` [XZ717, (Z)-4-((6-((((4-(5-Cyanopyridin-2-yl)benzylidene)amino)oxy)methyl)-2-phenylimidazo[1,2-a]pyridin-3-yl)amino)benzoic acid], the IC50 on TDP1 (setting [5]) was 50.3 ± 10.7 µM; at TDP2 (setting [4]), > 100 µM. Also, the “FC (fold change)” value on TDP1 was >2.

On to `Cc1cncc(Oc2ccc(/C=N\OCc3ccc(-c4nc5cc(-c6ccccc6)ccn5c4Nc4ccc(C(=O)O)cc4)cc3)cc2)n1` [XZ711, (Z)-4-((2-(4-((((4-((6-methylpyrazin-2-yl)oxy)benzylidene)amino)oxy)methyl)phenyl)-7-phenylimidazo[1,2-a]pyridin-3-yl)amino)benzoic acid], for which the “FC (fold change)” value at TDP1 is listed as >2. The IC50 at TDP2 (setting [4]) was > 100 µM.

Take `O=C(O)c1ccc(Nc2c(-c3ccccc3O)nc3cnccn23)cc1` [Compound M7]: in experiment [1], the synergy with camptothecin entry was “exhibit synergy with camptothecin” and the “Synergy Score” value is 15.6.

On to `Cc1cncc(Oc2ccc(/C=N/OCc3ccc(-c4nc5cc(-c6ccccc6)ccn5c4Nc4ccc(C(=O)O)cc4)cc3)cc2)n1` [XZ704, (E)-4-((2-(4-((((4-((6-methylpyrazin-2-yl)oxy)benzylidene)amino)oxy)methyl)phenyl)-7-phenylimidazo[1,2-a]pyridin-3-yl)amino)benzoic acid], for which the “FC (fold change)” value at TDP1 is >1. Further, the IC50 on TDP2 (setting [4]) was > 100 µM.

Turning to `Cc1cncc(Oc2ccc(/C=N/OCc3ccc4nc(-c5ccccc5)c(Nc5ccc(C(=O)O)cc5)n4c3)cc2)n1` [XZ707, (E)-4-((6-((((4-((6-methylpyrazin-2-yl)oxy)benzylidene)amino)oxy)methyl)-2-phenylimidazo[1,2-a]pyridin-3-yl)amino)benzoic acid], the IC50 at TDP1 (setting [5]) and at TDP2 (setting [4]) was > 100 µM in each case.

With `O=C(O)c1ccc(Nc2c(-c3ccccc3)nc3ccc(C(=O)O)cn23)cc1` [Compound 8m, 3-((4-Carboxyphenyl)amino)-2-phenylimidazo[1,2-a]pyridine-6-carboxylic acid], the IC50 at TDP1 (setting [2]) amounted to 0.9 µM. The synergy with camptothecin result in experiment [1] is reported as “exhibit synergy with camptothecin”.

As for `Cc1ncsc1-c1ccc(CNC(=O)[C@@H]2C[C@@H](O)CN2C(=O)[C@@H](NC(=O)COCCOCCn2cc(-c3ccn4c(Nc5ccc(C(=O)O)cc5)c(-c5ccccc5)nc4c3)nn2)C(C)(C)C)cc1` [XZ682, 4-((7-(1-(2-(2-(2-(((S)-1-((2S,4R)-4-Hydroxy-2-((4-(4-methylthiazol-5-yl)benzyl)carbamoyl)pyrrolidin-1-yl)-3,3-dimethyl-1-oxobutan-2-yl)amino)-2-oxoethoxy)ethoxy)ethyl)-1H-1,2,3-triazol-4-yl)-2-phenylimidazo[1,2-a]pyridin-3-yl)amino)benzoic acid], the IC50 on TDP1 (setting [3]) is > 100 µM; on TDP2 (Table 10, PROTACs), > 100 µM.

Take `Cc1ncsc1-c1ccc(CNC(=O)[C@@H]2C[C@@H](O)CN2C(=O)[C@@H](NC(=O)COCCOCCOCCOCCn2cc(COc3ccc(-c4nc5cc(-c6ccccc6)ccn5c4Nc4ccc(C(=O)O)cc4)cc3)nn2)C(C)(C)C)cc1` [XZ681, 4-((2-(4-((1-((S)-16-((2S,4R)-4-Hydroxy-2-((4-(4-methylthiazol-5-yl)benzyl)carbamoyl)pyrrolidine-1-carbonyl)-17,17-dimethyl-14-oxo-3,6,9,12-tetraoxa-15-azaoctadecyl)-1H-1,2,3-triazol-4-yl)methoxy)phenyl)-7-phenylimidazo[1,2-a]pyridin-3-yl)amino)benzoic acid]: the IC50 is > 100 µM at TDP1 (setting [3]) and > 100 µM at TDP2 (Table 10, PROTACs).

These data come from patent publication US20250011330A1, “Imidazo[1,2- a]pyrazine and Imidazo[1,2- a]pyridine Based Tyrosyl-DNA Phosphodiesterase I (TDP1) Inhibitors” (The USA, As Represented by the Secretary, Department of …, priority 2021, published 2025).
